Laboratory results from patent publication US20240285674A1, “USE OF SULFATE GLUCO-GALACTO-OLIGOSACCHARIDE IN PREPARATION OF ANTICOAGULANT AND/OR ANTITHROMBOTIC DRUG” (NANJING UNIVERSITY OF SCIENCE AND TECHNOLOGY, priority 2021, published 2024).

What was measured:
Coagulation factor FXa = Coagulation factor FXa (Homo sapiens, UniProt P00742); test: Inhibitory activity on coagulation factor FXa (chromogenic substrate CS-11(22)); assay type: biochemical; conditions: sample 1 mg/mL; for Inhibitory effect on coagulation factor FXa: incubated at 37° C. for 1 h
Protocol: (§1) • a. 100 μL of FXa (5 nM) and 50 μL of the sulfate gluco-galacto-oligosaccharide sample (1 mg/mL) were mixed in a 96-well plate, incubated at 37° C. for 1 h, added with 50 μL of a substrate CS-11(22) (1.77 mM), and detected at a wavelength of 405 nm for 60 min, detecting once every minute. • b. 100 μL of HFXIa (human coagulation factor XIa, 1 nM) and 50 μL of the sulfate gluco-galacto-oligosaccharide sample (1 mg/mL) were mixed in a 96-well plate, incubated at 37° C. for 1 h, added with 50 μL of a substrate S2366 (1 mM), and detected at a wavelength of 405 nm for 60 min, detecting once every minute. • c. 100 μL of FXIIa (4 nM) and 50 μL of the sulfate gluco-galacto-oligosaccharide sample (1 mg/mL) were mixed in a 96-well plate, incubated 37° C. for 1 h, added with 50 μL of a substrate Pefachrome FXIIa/TH5253 (1 mM), and detected at a wavelength of 405 nm for 60 min, detecting once every minute. • d. 100 μL of Trypsin (8.3 nM) and 50 μL of the sulfate gluco-galacto-oligosaccharide sample (1 mg/mL) were mixed in a 96-well plate, incubated 37° C. for 1 h, added with 50 μL of a substrate CS-11(22) (1 mM), and detected at a wavelength of 405 nm for 60 min, detecting once every minute. • e. 100 μL of Thrombin (0.2 IU/mL) and 50 μL of the sulfate gluco-galacto-oligosaccharide sample (1 mg/mL) were mixed in a 96-well plate, incubated at 37° C. for 1 h, added with 50 μL of a substrate CS-01(38) (400 μM), and detected at a wavelength of 405 nm for 60 min, detecting once every minute. • f. 100 μL of Kallikrein (1 nM) and 50 μL of the sulfate gluco-galacto-oligosaccharide sample (1 mg/mL) were mixed in a 96-well plate, incubated 37° C. for 1 h, added with 50 μL of a substrate CS-31(02) (1 mM), and detected at a wavelength of 405 nm for 60 min, detecting once every minute.
(§2) Data processing was conducted using the software Graphpad Prism 6.0. Regression analysis was conducted with the reaction time as an abscissa and the absorbance value at 405 nm as an ordinate.
The calculated inhibition rate=(V0−V1)/V0×100%. […] The degree of sulfation of the sulfate gluco-galacto-oligosaccharide was controlled by controlling the ratio of gluco-galacto-oligosaccharide and sulfating reagent. […] It was seen that the more sulfate groups on average per sugar residue, the higher the inhibition rate of FXa by the sulfate gluco-galacto-oligosaccharide.

[1] = molecular target: T1, HFXIa (human coagulation factor XIa) (Homo sapiens, UniProt P03951); test: Inhibitory activity on coagulation factor XIa (chromogenic substrate S2366); assay type: biochemical; conditions: sample 1 mg/mL, incubated at 37° C. for 1 h
T1 construct: HFXIa (human coagulation factor XIa, 1 nM)
Protocol: as §1, with “100 μL of Thrombin (0.2 IU/mL) and 50 μL of the sulfate gluco-galacto-oligosaccharide sample (1 mg/mL) were mixed in a 96-well plate, incubated at 37° C. for 1 h, added with 50 μL of a substrate CS-01(38) (400 μM), and detected at a wavelength of 405 nm for 60 min, detecting once every minute. • f. 100 μL of Kallikrein (1 nM) and 50 μL of the sulfate gluco-galacto-oligosaccharide sample (1 mg/mL) were mixed in a 96-well plate, incubated 37° C. for 1 h, added with 50 μL of a substrate CS-31(02) (1 mM), and detected at a wavelength of 405 nm for 60 min, detecting once every minute.” left out
as §2

Coagulation factor FXIIa = molecular target: T2, Coagulation factor FXIIa (Homo sapiens, UniProt P00748); test: Inhibitory activity on FXIIa (chromogenic substrate Pefachrome FXIIa/TH5253); assay type: biochemical; conditions: sample 1 mg/mL, incubated at 37° C. for 1 h
T2 sequence (P00748 373-615 limits assumed): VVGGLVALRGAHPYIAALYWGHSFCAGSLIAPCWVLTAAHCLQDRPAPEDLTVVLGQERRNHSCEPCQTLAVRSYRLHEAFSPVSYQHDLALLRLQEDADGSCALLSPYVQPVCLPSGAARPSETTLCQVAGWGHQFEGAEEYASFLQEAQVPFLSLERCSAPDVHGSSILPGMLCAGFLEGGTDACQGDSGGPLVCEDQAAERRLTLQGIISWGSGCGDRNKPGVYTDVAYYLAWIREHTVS
Protocol: as §1, with “100 μL of Thrombin (0.2 IU/mL) and 50 μL of the sulfate gluco-galacto-oligosaccharide sample (1 mg/mL) were mixed in a 96-well plate, incubated at 37° C. for 1 h, added with 50 μL of a substrate CS-01(38) (400 μM), and detected at a wavelength of 405 nm for 60 min, detecting once every minute. • f. 100 μL of Kallikrein (1 nM) and 50 μL of the sulfate gluco-galacto-oligosaccharide sample (1 mg/mL) were mixed in a 96-well plate, incubated 37° C. for 1 h, added with 50 μL of a substrate CS-31(02) (1 mM), and detected at a wavelength of 405 nm for 60 min, detecting once every minute.” left out
as §2

Trypsin = test: Inhibitory activity on trypsin (chromogenic substrate CS-11(22)); assay type: biochemical; conditions: sample 1 mg/mL, incubated at 37° C. for 1 h
Protocol: as §1, with “100 μL of Thrombin (0.2 IU/mL) and 50 μL of the sulfate gluco-galacto-oligosaccharide sample (1 mg/mL) were mixed in a 96-well plate, incubated at 37° C. for 1 h, added with 50 μL of a substrate CS-01(38) (400 μM), and detected at a wavelength of 405 nm for 60 min, detecting once every minute. • f. 100 μL of Kallikrein (1 nM) and 50 μL of the sulfate gluco-galacto-oligosaccharide sample (1 mg/mL) were mixed in a 96-well plate, incubated 37° C. for 1 h, added with 50 μL of a substrate CS-31(02) (1 mM), and detected at a wavelength of 405 nm for 60 min, detecting once every minute.” left out
as §2

Thrombin = molecular target: T3, Thrombin (Homo sapiens, UniProt P00734); test: Inhibitory activity on thrombin (chromogenic substrate CS-01(38)); assay type: biochemical; conditions: sample 1 mg/mL, incubated at 37° C. for 1 h
T3 construct: 100 μL of Thrombin (0.2 IU/mL)
Protocol: as §1, with “100 μL of Thrombin (0.2 IU/mL) and 50 μL of the sulfate gluco-galacto-oligosaccharide sample (1 mg/mL) were mixed in a 96-well plate, incubated at 37° C. for 1 h, added with 50 μL of a substrate CS-01(38) (400 μM), and detected at a wavelength of 405 nm for 60 min, detecting once every minute. • f. 100 μL of Kallikrein (1 nM) and 50 μL of the sulfate gluco-galacto-oligosaccharide sample (1 mg/mL) were mixed in a 96-well plate, incubated 37° C. for 1 h, added with 50 μL of a substrate CS-31(02) (1 mM), and detected at a wavelength of 405 nm for 60 min, detecting once every minute.” left out
as §2

Kallikrein = Kallikrein (Homo sapiens, UniProt P03952); test: Inhibitory activity on kallikrein (chromogenic substrate CS-31(02)); assay type: biochemical; conditions: sample 1 mg/mL, incubated at 37° C. for 1 h
Protocol: as §1, with “100 μL of Thrombin (0.2 IU/mL) and 50 μL of the sulfate gluco-galacto-oligosaccharide sample (1 mg/mL) were mixed in a 96-well plate, incubated at 37° C. for 1 h, added with 50 μL of a substrate CS-01(38) (400 μM), and detected at a wavelength of 405 nm for 60 min, detecting once every minute. • f. 100 μL of Kallikrein (1 nM) and 50 μL of the sulfate gluco-galacto-oligosaccharide sample (1 mg/mL) were mixed in a 96-well plate, incubated 37° C. for 1 h, added with 50 μL of a substrate CS-31(02) (1 mM), and detected at a wavelength of 405 nm for 60 min, detecting once every minute.” left out
as §2

[2] = tested on: intrinsic coagulation pathway; test: Activated partial thromboplastin time (APTT) of plasma from mice after tail vein injection; assay type: in vivo, C57/BL-6J mice; conditions: 0.25, 0.5 and 1.0 mg/mL injected into the tail vein
Protocol: The experimental animals were male C57/BL-6J mice, weighing 18 g to 20 g. The mice were housed under standard experimental conditions with a 12-hour light-12-hour dark cycle with free access to water and food. The mice were anesthetized by intraperitoneal injection of 5% chloral hydrate, and administration of the drug was administered through the tail vein after confirming that the mice were completely anesthetized and had no eyelid reflex. The mice were randomly divided into four groups. […]
Activated partial thromboplastin time (APTT) is a duration required to observe plasma coagulation after adding an APTT reagent and calcium ions to the tested plasma. […] The APTT was measured according to the operating procedures in the kit instructions, and the fibrin formation time was read on the coagulometer. […]
The coagulation time of the physiological saline group was recorded as 1 times, and the multiples of APTT of the sulfate gluco-galacto-oligosaccharide samples with different concentrations relative to the physiological saline group were calculated.

[3] = tested on: ferric chloride-induced carotid artery thrombosis; test: Ferric chloride-induced carotid artery thrombosis model, blood vessel occlusion time; assay type: in vivo, C57/BL-6J mice; conditions: tail vein, mice
Protocol: (§3) The experimental animals were male C57/BL-6J mice, weighing 18 g to 20 g. The mice were housed under standard experimental conditions with a 12-hour light-12-hour dark cycle with free access to water and food. The mice were anesthetized by intraperitoneal injection of 5% chloral hydrate, and administration of the drug was administered through the tail vein after confirming that the mice were completely anesthetized and had no eyelid reflex. The mice were randomly divided into three groups. A first group was a negative control group and was injected with physiological saline through the tail vein; a second group was a low-dose group, with 0.5 mg/mL sulfate gluco-galacto-oligosaccharide injected into the tail vein; and a third group was a high-dose group, with 1.0 mg/mL sulfate gluco-galacto-oligosaccharide injected into the tail vein. After tail vein administration, the mouse carotid arteries were dissected, and a filter paper piece (1 mm×2 mm) dipped in 6.0% ferric chloride solution was applied to the outer wall of the mouse carotid artery to allow induction for 3 min to construct a ferric chloride-induced carotid artery thrombosis model.
The blood flow and thrombosis of the mouse carotid arteries were observed using a laser speckle flow imager, and the mouse carotid arteries were observed under the moorFLPI-2 lens for 15 min. The carotid arteries of the mice at the end of the observation were carefully dissected and stained with HE.
Charts were produced using GraphPad Prism 6.0 software, and statistical differences were analyzed using one-way analysis of variance and Dunnett's multiple comparisons. P<0.05 indicated a significant difference.
Blood vessel occlusion time refers to a duration from removal of the filter paper soaked in ferric chloride to the blood vessel occlusion. If no thrombosis was observed 15 min after removal of the ferric chloride filter paper, 15 min was considered as the vessel occlusion time. Combined with FIG. 3, in the negative control group (physiological saline group), the average blood vessel occlusion time was 4.5±0.23 min. […]

[4] = Tail tip bleeding time (bleeding risk); assay type: in vivo, C57/BL-6J mice; conditions: tail vein, mice; for cumulative bleeding time: 10 min after administration, capped at 20 min
Protocol: as §3, with “vein.” for “vein. After tail vein administration, the mouse carotid arteries were dissected, and a filter paper piece (1 mm×2 mm) dipped in 6.0% ferric chloride solution was applied to the outer wall of the mouse carotid artery to allow induction for 3 min to construct a ferric chloride-induced carotid artery thrombosis model.”
10 min after administration, the mouse was placed stably with its tail in a naturally straightened state. The mouse tail was cut off 3 mm from the tip, and then immersed in a silanized tube filled with 37° C. physiological saline. Start timing from cutting off the tail tip, 20 min. the accumulated bleeding time t after cutting off the tail tip of the mouse was recorded with a stopwatch. If the bleeding time t was greater than 20 min, it was recorded as 20 min.
Data processing was conducted using the Graphpad Prism 6.0 software. A dot plot of sample concentration was made versus bleeding time. P<0.05 indicated a significant difference.
Bleeding time refers to a duration required from bleeding to natural hemostasis after capillary damage. In the negative control group (physiological saline group), the cumulative bleeding time was 10.35±5.48 min.

Chain of Coagulation factor FXa (P00742 235-488 limits assumed): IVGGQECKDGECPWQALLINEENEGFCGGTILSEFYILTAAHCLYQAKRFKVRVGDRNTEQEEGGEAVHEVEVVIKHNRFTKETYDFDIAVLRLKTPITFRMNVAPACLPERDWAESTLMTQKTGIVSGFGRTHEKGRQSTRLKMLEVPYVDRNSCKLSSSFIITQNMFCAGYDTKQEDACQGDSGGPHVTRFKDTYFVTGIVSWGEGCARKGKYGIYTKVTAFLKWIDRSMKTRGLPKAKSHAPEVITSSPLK
Chain of Coagulation factor FXa (P00742 41-179 limits assumed): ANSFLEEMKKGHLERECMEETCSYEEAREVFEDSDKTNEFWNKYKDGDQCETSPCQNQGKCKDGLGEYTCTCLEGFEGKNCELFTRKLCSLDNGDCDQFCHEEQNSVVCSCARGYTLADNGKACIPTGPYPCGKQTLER
Chain of Kallikrein (P03952 391-638 limits assumed): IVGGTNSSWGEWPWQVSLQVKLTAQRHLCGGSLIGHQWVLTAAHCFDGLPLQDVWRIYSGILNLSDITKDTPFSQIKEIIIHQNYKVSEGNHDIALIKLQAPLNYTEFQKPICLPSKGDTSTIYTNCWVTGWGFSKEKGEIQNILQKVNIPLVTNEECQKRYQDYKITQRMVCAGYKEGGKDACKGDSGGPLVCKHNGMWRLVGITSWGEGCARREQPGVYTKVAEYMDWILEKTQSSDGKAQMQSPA
Chain of Kallikrein (P03952 20-390 partner limits assumed): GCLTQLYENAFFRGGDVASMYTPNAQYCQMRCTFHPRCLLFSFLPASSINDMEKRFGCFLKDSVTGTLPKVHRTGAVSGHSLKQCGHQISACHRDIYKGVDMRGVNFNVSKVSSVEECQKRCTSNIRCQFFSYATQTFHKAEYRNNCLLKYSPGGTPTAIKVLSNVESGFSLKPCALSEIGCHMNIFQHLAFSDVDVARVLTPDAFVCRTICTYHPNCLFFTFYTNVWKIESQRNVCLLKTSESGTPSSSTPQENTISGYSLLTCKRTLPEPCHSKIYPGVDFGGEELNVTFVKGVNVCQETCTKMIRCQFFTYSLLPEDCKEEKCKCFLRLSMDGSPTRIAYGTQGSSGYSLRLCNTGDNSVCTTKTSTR
T1 sequence (P03951 388-625 limits assumed): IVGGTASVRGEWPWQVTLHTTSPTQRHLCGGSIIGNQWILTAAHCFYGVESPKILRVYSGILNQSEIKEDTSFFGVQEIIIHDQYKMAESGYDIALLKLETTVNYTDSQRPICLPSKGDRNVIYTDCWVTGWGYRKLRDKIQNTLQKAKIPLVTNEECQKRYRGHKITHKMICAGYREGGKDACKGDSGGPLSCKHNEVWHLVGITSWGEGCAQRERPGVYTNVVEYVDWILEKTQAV
T1 sequence (P03951 19-387 limits assumed): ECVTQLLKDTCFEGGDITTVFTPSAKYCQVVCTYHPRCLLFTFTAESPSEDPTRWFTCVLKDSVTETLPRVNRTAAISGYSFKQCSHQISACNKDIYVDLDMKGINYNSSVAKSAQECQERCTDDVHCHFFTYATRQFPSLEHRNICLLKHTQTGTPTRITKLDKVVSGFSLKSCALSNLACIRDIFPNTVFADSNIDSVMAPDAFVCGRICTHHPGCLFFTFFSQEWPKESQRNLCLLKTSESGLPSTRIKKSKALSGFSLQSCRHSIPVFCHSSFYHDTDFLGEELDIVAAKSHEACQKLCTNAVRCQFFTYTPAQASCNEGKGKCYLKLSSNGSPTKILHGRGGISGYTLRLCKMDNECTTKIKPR

With “gluco-galacto-oligosaccharide [reference compound]” the “Inhibitory effect on coagulation factor FXa” value (Coagulation factor FXa) was “no inhibitory activity”.
With sulfate gluco-galacto-oligosaccharide the “Inhibitory effect on coagulation factor FXa” value (Coagulation factor FXa) was “Inhibition”, the “Inhibition rate of FXa” value (Coagulation factor FXa; listed as sulfate gluco-galacto-oligosaccharide with averagely 1.65 sulfate groups per sug) was 57.6% and the “Inhibitory effect on coagulation factor FXIa” value [1] was “No inhibition”. For the same substance, the “Inhibitory effect on coagulation factor FXIIa” value (Coagulation factor FXIIa) was “No inhibition”, the “Inhibitory effect on Trypsin” value (Trypsin) was “No inhibition” and the “Inhibitory effect on Thrombin” value (Thrombin) was “No inhibition”. The “Inhibitory effect on Kallikrein” value (Kallikrein) was “No inhibition”, the “Effect on APTT (plasma coagulation time relative to physiological saline group)” value [2] was “significant impact on APTT” and the “average blood vessel occlusion time” value ([3]; 0.5 mg/mL, observed 15 min) was 5.4 ± 1.37 min. For the same substance, the “Blood flow in carotid artery” value ([3]; 1.0 mg/mL) was “remained unchanged”, the “average blood vessel occlusion time” value ([3]; 1.0 mg/mL, 15 min recorded if no thrombosis within 15 min) was 15 min and the “Difference of cumulative bleeding time from physiological saline group” value ([4]; 0.5 mg/mL and 1.0 mg/mL) was “no statistically significant difference”. It also gave a cumulative bleeding time ([4]; 0.5 mg/mL) of 11.88 ± 4.44 min and a cumulative bleeding time ([4]; 1.0 mg/mL) of 11.60 ± 4.13 min.
In the case of “sulfate gluco-galacto-oligosaccharide [0.47]”, the “Inhibition rate of FXa” value (Coagulation factor FXa) is reported as 10.2%.
With “sulfate gluco-galacto-oligosaccharide [1.23]” the “Inhibition rate of FXa” value (Coagulation factor FXa) was 39.2%.
For “sulfate gluco-galacto-oligosaccharide [2.10]”, the “Inhibition rate of FXa” value (Coagulation factor FXa) was 65.5%.
In the case of “sulfate gluco-galacto-oligosaccharide [2.52]”, the “Inhibition rate of FXa” value (Coagulation factor FXa) is reported as 78.4%.
